Legend:
Fusarium culmorum = test: microbe, parasite or virus in culture; format: cell-based; details: read-out: control of Fusarium culmorum
[1] = tested on: Mycosphaerella graminicola (Septoria tritici); test: Mycosphaerella graminicola (Septoria tritici) on wheat / preventative; format: in vivo; details: Zymoseptoria tritici, wheat plants sprayed, inoculated one day after application, assessed 16-19 days after application vs untreated control
[2] = tested on: Botryotinia fuckeliana (Botrytis cinerea); test: Botryotinia fuckeliana (Botrytis cinerea) / liquid culture (gray mould); format: cell-based; details: 72 h, compared to untreated control, growth inhibition determined photometrically 3-4 days after application
[3] = tested on: Glomerella lagenarium (Colletotrichum lagenarium); test: Glomerella lagenarium (Colletotrichum lagenarium) / liquid culture (anthracnose); format: cell-based; details: Colletotrichum orbiculare, compared to untreated control, growth inhibition measured photometrically 3-4 days after application
[4] = tested on: Monographella nivalis (Microdochium nivale); test: Monographella nivalis (Microdochium nivale) / liquid culture (foot rot cereals); format: cell-based; details: compared to untreated control, growth inhibition determined photometrically 4-5 days after application
[5] = tested on: Magnaporthe grisea (Pyricularia oryzae); test: microbe, parasite or virus in culture; format: cell-based; details: read-out: control of Magnaporthe grisea
Sclerotinia sclerotiorum = test: microbe, parasite or virus in culture; format: cell-based; details: read-out: control of Sclerotinia sclerotiorum
[6] = tested on: Mycosphaerella graminicola (Septoria tritici); test: Mycosphaerella graminicola (Septoria tritici) / liquid culture (Septoria blotch); format: cell-based; details: Zymoseptoria tritici, compared to untreated control, growth inhibition determined photometrically 4-5 days after application

Row | SMILES | inhibition of growth at 20 ppm (Fusarium culmorum) [%] | pest or weed control at 60 ppm [1] [%] | melting point [°C] | inhibition of growth at 20 ppm [2] [%] | inhibition of growth at 20 ppm [3] [%] | inhibition of growth at 20 ppm [4] [%] | inhibition of growth at 20 ppm [5] [%] | inhibition of growth at 20 ppm (Sclerotinia sclerotiorum) [%] | inhibition of growth at 20 ppm [6] [%]
1 | CC1(C)CC(Cc2ccc(F)cc2)N=C(c2cnc3c(F)c(F)ccc3c2)O1 (stereo not drawn) [F-7] | ≥ 80 | ≥ 80 | 117 to 119 |  |  |  |  |  | 
2 | CC1(C)CC(Cc2ccccc2)N=C(c2cnc3c(F)cccc3c2)O1 (stereo not drawn) [E-13, 4-benzyl-2-(8-fluoro-3-quinolyl)-6,6-dimethyl-4,5-dihydro-1,3-oxazine] | ≥ 80 |  | 90 to 92 | ≥ 80 | ≥ 80 | ≥ 80 | ≥ 80 | ≥ 80 | ≥ 70
3 | CC1(C)CC(Cc2ccccc2)N=C(c2cnc3c(F)c(F)ccc3c2)O1 (stereo not drawn) [F-5] | ≥ 80 | ≥ 80 |  | ≥ 80 |  | ≥ 80 | ≥ 80 | ≥ 80 | ≥ 70
4 | Cc1nc2c(F)c(F)ccc2cc1C1=NC(Cc2ccc(F)cc2)CC(C)(C)O1 (stereo not drawn) [E-24, 2-(7,8-difluoro-2-methyl-3-quinolyl)-4-[(4-fluorophenyl)methyl]-6,6-dimethyl-4,5-dihydro-1,3-oxazine] |  | ≥ 80 | 128 to 132 | ≥ 80 |  | ≥ 80 |  |  | ≥ 70
5 | Fc1ccc2cc(C3=NC(Cc4ccccc4)CC4(CCCC4)O3)cnc2c1F (stereo not drawn) [E-21, 9-benzyl-7-(7,8-difluoro-3-quinolyl)-6-oxa-8-azaspiro[4.5]dec-7-ene] |  | ≥ 80 |  | ≥ 80 |  | ≥ 80 | ≥ 80 |  | ≥ 70
6 | CC1(C)CC(Cc2cccc(F)c2)N=C(c2cnc3c(F)c(F)ccc3c2)O1 (stereo not drawn) [E-19, 2-(7,8-difluoro-3-quinolyl)-4-[(3-fluorophenyl)methyl]-6,6-dimethyl-4,5-dihydro-1,3-oxazine] | ≥ 80 | ≥ 80 | 95 to 98 | ≥ 80 |  | ≥ 80 | ≥ 80 | ≥ 80 | ≥ 70
7 | Cc1nc2c(F)c(F)ccc2cc1C1=NC(Cc2ccccc2)CC(C)(C)O1 (stereo not drawn) [E-22, 4-benzyl-2-(7,8-difluoro-2-methyl-3-quinolyl)-6,6-dimethyl-4,5-dihydro-1,3-oxazine] | ≥ 80 | ≥ 80 |  | ≥ 80 |  | ≥ 80 |  | ≥ 80 | ≥ 70
8 | CC1(C)CC(Cc2ccccc2F)N=C(c2cnc3c(F)c(F)ccc3c2)O1 (stereo not drawn) [E-20, 2-(7,8-difluoro-3-quinolyl)-4-[(2-fluorophenyl)methyl]-6,6-dimethyl-4,5-dihydro-1,3-oxazine] | ≥ 80 | ≥ 80 |  | ≥ 80 |  | ≥ 80 | ≥ 80 |  | 
9 | CC1(Cc2ccccc2)CC(C)(C)SC(c2cnc3c(F)cccc3c2)=N1 (stereo not drawn) [E-7, 4-benzyl-2-(8-fluoro-3-quinolyl)-4,6,6-trimethyl-5H-1,3-thiazine] | ≥ 80 |  |  | ≥ 80 | ≥ 80 | ≥ 80 | ≥ 80 | ≥ 80 | ≥ 70
10 | Fc1ccc2cc(C3=NC(Cc4ccccc4)CC4(CCC4)O3)cnc2c1F (stereo not drawn) [E-23, 8-benzyl-6-(7,8-difluoro-3-quinolyl)-5-oxa-7-azaspiro[3.5]non-6-ene] |  | ≥ 80 | 159 to 162 | ≥ 80 |  | ≥ 80 |  |  | 
11 | C[C@@]1(Cc2ccccc2)C[C@@](C)(CCl)OC(c2cnc3c(F)cccc3c2)=N1 [E-10, (4R,6S)-4-benzyl-6-(chloromethyl)-2-(8-fluoro-3-quinolyl)-4,6-dimethyl-5H-1,3-oxazine] | ≥ 80 |  | 125 to 130 | ≥ 80 | ≥ 80 | ≥ 80 | ≥ 80 | ≥ 80 | ≥ 70

Source: patent US12012399B2, “Microbiocidal quinoline dihydro-(thiazine)oxazine derivatives” (priority 2018, dated 2024)
